From patent US20250092058A1 (priority 2018, published 2025) come the findings set out here.

The subject of one test is HT-3. The experiment in a line: MTT assay HT-3. It counts as cell-based, human. Conditions: Table 7; HT-3. As to the method:
(§1) MTT assays. […] Viable cells (2500 cells per well) were plated in each well in 96-well plates. After an overnight incubation, cells were treated with and without relevant drugs alone and in combination, respectively, at various concentrations and incubated for 72 hours. MTT, a colorimetric substrate, was added to a final concentration of 0.4 mg/ml to each well. Cells in 96-well plates were further incubated in a 5% CO2 incubator at 37° C. for 4 hours, and then the medium was aspirated. The MTT metabolic product formazan was solubilized by adding 200 ul of DMSO to each well. Absorbance in the relevant wells was measured at 570 nm using an Ultra Microplate Reader (Bio-Tek Instruments). Each experiment was performed at least in triplicate. IC50/EC50 values were calculated from a series of drug dose ranges for each analyzed compound, using GraphPad Prism 6 (GraphPad Software, Inc., La Jolla, CA).
(§2) The inhibition of cell growth and viability in various cancer cell types were tested using MTT assay for references.

The subject of the next test is Y79. The experiment in a line: MTT assay Y79. The class given is cell-based. Conditions: Table 7. As to the method: (§3) MTT assays. […] Each experiment was performed at least in triplicate.
Another test has as its system Wer 127. The experiment in a line: MTT assay Wer 127. It counts as cell-based. Conditions: Table 7. As to the method:
as §3

Test [1] has as its system HT-3 retinoblastoma xenograft tumors. Conditions: oral, multiple doses, weekly×4. As to the method:
Human HT-3 retinoblastoma xenograft tumors were initially established by subcutaneously injection of 2-5×10^6 HT-3 cells in a volume of 100-200 μL medium. Mouse models of HT-3 xenografts were set up by subcutaneously inoculating 30-40 mg tumor tissue on the flank of SCID mice. Treatment with individual compounds was initiated 7-14 days after the transplanted tumors reached 100-200 mm^3 (designated day 0). […] The individual compounds were formulated in an organic solvent-free with HPPCD as drug carriers in 2% HPMC (hydroxypropyl methylcellulose) and 1% PG (propylene glycol) in saline (a thick aqueous suspension) for oral administration. The vehicle is the same thick aqueous suspension without drug. A. FL7s-3-treated xenograft tumor curve profile (left panel) and body weight profile (right panel) over the experimental period. B. FL7s-4-treated xenograft tumor curve profile (left panel) and body weight profile (right panel) over the experimental period. C. FL7s-7-treated xenograft tumor curve profile (left panel) and body weight profile (right panel) over the experimental period.
Human xenograft tumors used. In this invention disclose, human SW620 (colorectal), HT29 (colorectal) and HT-3 (retinoblastoma) cancer cell line-established xenograft tumors were used. Human tumor cell line-derived xenograft tumors are initially established by subcutaneously injecting 2-5×10^6 cultured cancer cells in a volume of 100-150 p L medium into the flank area of severe combined immunodeficiency (SCID) mice. The derived tumors are then passed a couple of generations in mice by transplanting 30-50 mg non-necrotic tumor mass via a trocar for experiments or maintenance. […] PDX tumors were originally established on severe Combined Immunodeficiency (SCID) mice from pancreatic and colorectal cancer patient tumor tissues obtained from metastatic sites of the disease in the clinic.
To these three novel compounds, we performed in vivo animal model studies to evaluate their antitumor activity and toxicity using the HT-3 retinoblastoma xenograft tumor models. In this experiment, we still took advantage of the newly developed formulation for oral administration of compounds.

The subject of the next test is A549. The experiment in a line: MTT assay A549. The class given is cell-based, human. Conditions: Table 9. As to the method:
as §3

The subject of a further test is A2008. The experiment in a line: MTT assay A2008. It counts as cell-based. Conditions: Table 9; A2008. As to the method: as §1, §2

Take `CC[C@@]1(O)C(=O)OCc2c1cc1n(c2=O)Cc2c-1nc1cc3c(cc1c2CCc1ccc(Br)cc1)OCO3` [FL7-17, 20 (S)-7-(4-bromo-phenethyl)-10,11-methylenedioxy-camptothecin]: the IC50/EC50 in the test with HT-3 amounted to 6.48 nM; in the test with Y79, 1.57 nM; with Wer 127, 2.48 nM. Besides, the “overall antitumor activity versus toxicity ranking” value in test [1] is “not as good as FL7-5 and FL7-14”.
With `CC[C@@]1(O)C(=O)OCc2c1cc1n(c2=O)Cc2c-1nc1cc3c(cc1c2/C=C/c1ccc(F)cc1)OCO3` [FL7s-3], the IC50/EC50 with HT-3 turned out to be 1.68 nM; in the test with Y79, 0.61 nM; in the test with Wer 127 it was 40.69 nM. Moreover, in test [1], the “overall antitumor activity versus toxicity ranking” value is “top two candidates”.
Take `CC[C@@]1(O)C(=O)OCc2c1cc1n(c2=O)Cc2c-1nc1cc3c(cc1c2-c1cnn(C)c1)OCO3` [W-b5]: the IC50/EC50 amounted to 2.29 nM in the test with A549 and 17.5 nM in the test on A2008.
On to `CC[C@@]1(O)C(=O)OCc2c1cc1n(c2=O)Cc2c-1nc1cc3c(cc1c2CCc1ccccc1Cl)OCO3` [FL7-15, 20 (S)-7-(2-chloro-phenethyl)-10,11-methylenedioxy-camptothecin], for which the IC50/EC50 with HT-3 was 45.81 nM; with Y79 it was 12.59 nM; in the test on Wer 127, above 500 nM. The “overall antitumor activity versus toxicity ranking” value in test [1] was “not as good as FL7-5 and FL7-14”.
Turning to `CC[C@@]1(O)C(=O)OCc2c1cc1n(c2=O)Cc2c-1nc1cc3c(cc1c2CCc1cccc(F)c1)OCO3` [FL7s-7], the IC50/EC50 was found to be 2.22 nM with HT-3, 0.29 nM with Y79 and 4.76 nM with Wer 127. Further, the “overall antitumor activity versus toxicity ranking” value in test [1] is on record as “top two candidates”.
For `CC[C@@]1(O)C(=O)OCc2c1cc1n(c2=O)Cc2c-1nc1cc3c(cc1c2-c1ccncc1)OCO3` [W-b1, 20 (S)-7-(pyridyl-4-)-FL118 (10,11-methylenedioxy-camptothecin)], the values for the IC50/EC50 in the test on A549 and in the test on A2008 were 73.4 nM and 24.4 nM, respectively.
With `CC[C@@]1(O)C(=O)OCc2c1cc1n(c2=O)Cc2c-1nc1cc3c(cc1c2-c1ccsc1)OCO3` [W-b4], the IC50/EC50 is 1.99 nM in the test on A549 and 31.9 nM with A2008.
Consider `CC[C@@]1(O)C(=O)OCc2c1cc1n(c2=O)Cc2c-1nc1cc3c(cc1c2-c1ccc(CO)cc1)OCO3` [W-b9], for which the IC50/EC50 came to 1.28 nM with A549 and 3.49 nM with A2008.
With `CC[C@@]1(O)C(=O)OCc2c1cc1n(c2=O)Cc2c-1nc1cc3c(cc1c2-c1ccco1)OCO3` [W-b7], the IC50/EC50 in the test with A549 turned out to be 0.39 nM; in the test with A2008, 0.19 nM.
